The target of data set [1] is T1, HCMV DNA polymerase (UL54) (Human cytomegalovirus, UniProt P08546).
T1 construct: 6His (C); made in house; host or cells: Sf9 insect cells (baculovirus, pFastBac)
The data set can be described thus: HCMV DNA polymerase enzyme inhibition assay (ProFoldin, fluorescence). The class given is biochemical. To be noted: 37° C., duplicate, max 40 μM. The procedure: The HCMV DNA polymerase assay was developed by ProFoldin. The assay detects the formation of DNA from the DNA polymerase reaction in the presence of a DNA template, dATP and dGTP. The formation of the DNA is detected by using a fluorescence method. The fluorescence intensity increases when DNA is generated by the enzyme reaction.
A time-course experiment was performed aside the enzyme inhibition assay to ensure the assay was sensitive to the enzyme inhibition. The wells for the time-course experiment contained 1 μL of DMSO and the same reaction mixture as that in the enzyme inhibition assay. The time-course data varied between plates. The reactions were stopped when the fluorescence reached a value of about 3700 for each plate.
Exemplary solid compounds (e.g., as described herein) were dissolved in DMSO to make […] stock solutions. PFA (phosphonoformic acid or phosphonomethanoic acid) was used as a positive control. The compound mother plates were prepared at 50× concentrated compound concentrations with a 2-fold serial dilution. All the exemplary compounds except PFA were diluted in DMSO. PFA was diluted in water. The maximum compound concentration was 2 mM that gave the final concentration of 40 μM in the assay. One microliter of the 50× stock solutions was transferred into the assay plates. Three copies of assay plates were prepared, two for HCMV DNA polymerase assay and one for compound background control.
The following is the protocol for enzyme inhibition performed at 37° C.:
1. Prepared a premix composed of 35347 μL of H2O, 5220 μL of 10× assay buffer and 149 μL of 350×HCMV DNA polymerase.
2. Added 39 μL of the premix into the wells with 1 μL of the compound. Incubated the mixture for at least 5 min.
3. Added 10 μL of 5×dNTP (0.1 mM), 5×DNA template solutions into each well and incubated the solution until the fluorescence value reached a value about 3700 for the DMSO-only control wells.
4. Added 50 μL of the 1× dye into the wells.
5. Read the fluorescence at emission wavelength of 535 nm and excitation wavelength of 485 nm.
For the compound background reading, added 99 μL of water in the wells with 1 μL of compounds and read the fluorescence. […] The 0% inhibition value F0 was from the wells with DMSO (no inhibitor).
The background values were subtracted from the fluorescence reading to get the net fluorescence values. The net fluorescence values were used for calculation of the percentage inhibition.
The assay was performed in duplicate for the test article at […], 1.25, 0.625, 0.313, 0.156 and 0.078 μM. The IC50 curves were obtained by fitting the percentage inhibition values with the compound concentrations using Prism GraphPad software.

A short description of data set [2]: Cytotoxicity in MRC5 cells without virus infection (CCK8). To be noted: human. The class given is cell-based. The procedure: (§1) Exemplary compounds (e.g., as described herein) were prepared as 20 mM stock solutions with DMSO. Reference compound was ganciclovir (Sigma). Compounds were tested at 8 concentrations, 3-fold serial dilutions, in duplicate for EC50 and CC50 determinations. The highest testing concentrations of the exemplary compounds and reference compound were 40 μM and 100 μM, respectively. The final concentration of DMSO in the cell culture was 0.5%.
(§2) MRC5 cells (ATCC CCL-171) was obtained from the ATCC and maintained in the EMEM (Sigma) supplemented with 10% FBS (HyClone), 1% L-glutamine (Gibco), 1% NEAA (Gibco), and 1% PS (Hyclone). Reagent:
Cytotoxicity of the compounds was assessed under the same conditions, but without virus infection, in parallel. Cell viability was measured with CCK8 following the manufacturer's manual. CC50 values were then calculated based on cytotoxicity at the test concentrations normalized by the medium control (medium only).
(§3) Antiviral activity and cytotoxicity of the compounds were expressed as % Inhibition and % Viability, respectively, and calculated with the formulas below:
Viability (%)=(Raw dataCPD−AverageMC)/(AverageCC−AverageMC)*100
(§4) Raw dataCPD indicates the values of the compound-treated wells; AverageVC, AverageCC and AverageMC indicate the average values of the virus control (cells infected with virus, without compound treatment), cell control and medium control wells, respectively.
(§5) EC50 and CC50 values were calculated using the GraphPad Prism software.

Data set [3] concerns the target T2, hERG potassium channel (Homo sapiens, UniProt Q12809).
T2 construct: host or cells: CHO cells stably expressing hERG
Briefly: Inhibition of hERG potassium channel, automated patch clamp (SyncroPatch 384PE) in CHO cells. The class given is cell-based. The protocol:
This automated patch clamp method (SyncroPatch 384PE) CHO cells stably expressing hERG potassium channels from Sophion Biosciences were used for this test.
The cells were cultured in a humidified and air-controlled (5% C02) incubator at 37° C.
The CHO cells which were at least two days after plating and more than 75% confluent would be used for experiments. Before testing, cells were harvested using TrypLE and resuspended in the physiological solution at the room temperature.
For the electrophysiological recordings the following solutions were used (Table 5). The physiological solution and external solution were prepared at least one month. The intracellular solution was prepared in batches aliquoted, and stored at 4° C. until used.
Exemplary compounds (e.g., as described herein) were dissolved in 100% DMSO to obtain stock solutions for different test concentrations. Then the stock solutions were further diluted into external solution to achieve final concentrations for testing. Visual check for precipitation was conducted before testing. Final DMSO concentration in external solution was not more than 0.30% for the compounds.
From this holding potential of −80 mV, the voltage was first stepped to −50 mV for 80 ms for leak subtraction, and then stepped to +20 mV for 4800 ms to open hERG channels. After that, the voltage was stepped back down to −50 mV for 5000 ms, causing a “rebound” or tail current, which was measured and collected for data analysis. Finally, the voltage was stepped back to the holding potential (−80 mV, 1000 ms). This voltage command protocol was repeated every 20000 msec. This command protocol was performed continuously during the test (vehicle control and test compound).
hERG SyncroPatch assay was conducted at room temperature. The Setup, Prime Chip, Catch and Seal Cells, Amplifier Settings, Voltage and Application Protocols were established with Biomek Software (Nanion).
One addition of 40 μL of the vehicle was applied, followed by 300s for a baseline period. Then the doses of exemplary test compounds were added with 40 μL. The exposure of test compound at each concentration was no less than 300s. […] Five concentrations (0.494 μM, 1.48 μM, 4.44 μM, 13.33 μM and 40.00 μM) were tested for each compound. Minimum 2 replicates per concentration were obtained.
Within each well recording, percent of control values were calculated for each test compound concentration current response based on peak current in presence of reference control (current response/peak current)×100%. The Dose-Response curves were fit to the standard Hill equation as shown below:
Ipost cpd/Ipre cpd=Bottom+(Top−Bottom)/(1+10^((Log IC50−X)*HillSlope))
Where X is the logarithm of concentration, Ipost cpd/Ipre cpd is the normalized peak current amplitude, Top is 1 and Bottom is equal to 0.
Curve-fitting and IC50 calculations were performed by GraphPad Prism 5.0. If the inhibition obtained at the lowest concentration tested was over 50%, or at the highest concentration tested was less than 50%, we reported the IC50 as less than lowest concentration, or higher than highest concentration, respectively.

Data set [4] has as its system HCMV US3-6-EGFP-HCMV-AD169 strain. The data set can be described thus: In vitro inhibitory (antiviral) activity against HCMV, GFP reporter in MRC5 cells. The class given is cell-based, Human cytomegalovirus (HCMV). To be noted: Human betaherpesvirus 5, AD169, MRC5, 96 h, read-out: HCMV Antiviral EC50 range. The protocol: as §1
HCMV US3-6-EGFP-HCMV-AD169 strain was obtained from Institute Pasteur of Shanghai, CAS. The virus contains GFP as a reporter of the viral replication.
as §2
In 96-well plates, MRC5 cells were seeded at 20,000 cells per well and cultured at 37° C. and 5% C02 overnight. Next day, compounds (8 concentrations, 3-fold dilutions, in duplicate) and US3-6-EGFP-HCMV-AD169 (MOI=0.1) were added to the cells. The resulting cultures were incubated at 37° C. and 5% C02 for 4 days. Fluorescence intensity was determined by Acumen Cellista (TTP LabTech). The antiviral activity of each compound was calculated based on the inhibition of expression of GFP at each concentration normalized by the cell control (cells without virus infection or compound treatment).
as §3
Inhibition (%)=100−(Raw dataCPD−AverageCC)/(AverageVC−AverageCC)*100
as §4, §5

Where [5] appears, read: CHO cells stably expressing hERG, room temperature, 0.494-40.00 μM, read-out: CHO-hERG Activity Range.

Like-named read-outs stand apart in the source and are kept apart here.

In general, CC50 refers to the concentration that lowers cell viability or growth by half. Read a high CC50 as lower toxicity to the cells. By EC50 is commonly meant the concentration needed to bring the measured effect to its halfway point.

T2 sequence (Q12809 whole entry): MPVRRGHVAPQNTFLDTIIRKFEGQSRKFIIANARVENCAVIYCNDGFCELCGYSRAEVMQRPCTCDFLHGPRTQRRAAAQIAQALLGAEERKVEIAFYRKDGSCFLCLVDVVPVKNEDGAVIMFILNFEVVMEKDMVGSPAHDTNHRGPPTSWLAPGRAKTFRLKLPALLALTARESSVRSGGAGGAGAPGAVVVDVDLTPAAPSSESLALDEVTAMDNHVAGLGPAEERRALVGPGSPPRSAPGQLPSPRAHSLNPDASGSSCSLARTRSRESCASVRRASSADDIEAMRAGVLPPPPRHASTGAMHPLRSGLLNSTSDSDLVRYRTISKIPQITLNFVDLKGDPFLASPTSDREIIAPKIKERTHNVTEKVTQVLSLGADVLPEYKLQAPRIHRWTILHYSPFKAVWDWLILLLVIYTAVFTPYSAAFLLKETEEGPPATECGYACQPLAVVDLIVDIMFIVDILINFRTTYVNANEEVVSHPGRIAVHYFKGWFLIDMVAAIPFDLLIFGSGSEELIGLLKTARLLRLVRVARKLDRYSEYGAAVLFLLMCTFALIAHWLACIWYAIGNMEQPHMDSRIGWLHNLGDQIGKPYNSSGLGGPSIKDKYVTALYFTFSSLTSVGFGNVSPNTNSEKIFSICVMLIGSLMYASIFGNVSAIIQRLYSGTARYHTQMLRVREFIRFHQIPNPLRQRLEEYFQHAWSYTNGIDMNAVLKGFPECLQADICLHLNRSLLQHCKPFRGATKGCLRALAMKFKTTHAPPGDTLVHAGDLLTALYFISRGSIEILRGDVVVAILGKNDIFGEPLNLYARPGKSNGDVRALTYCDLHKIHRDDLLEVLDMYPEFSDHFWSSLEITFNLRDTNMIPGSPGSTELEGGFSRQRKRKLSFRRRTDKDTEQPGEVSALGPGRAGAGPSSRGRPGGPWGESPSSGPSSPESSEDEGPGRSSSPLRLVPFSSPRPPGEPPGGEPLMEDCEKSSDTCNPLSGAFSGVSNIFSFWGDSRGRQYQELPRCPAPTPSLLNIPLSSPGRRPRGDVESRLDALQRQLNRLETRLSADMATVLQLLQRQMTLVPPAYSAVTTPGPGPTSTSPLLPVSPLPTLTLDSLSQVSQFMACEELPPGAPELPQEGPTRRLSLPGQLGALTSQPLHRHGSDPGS
T1 sequence (P08546 whole entry): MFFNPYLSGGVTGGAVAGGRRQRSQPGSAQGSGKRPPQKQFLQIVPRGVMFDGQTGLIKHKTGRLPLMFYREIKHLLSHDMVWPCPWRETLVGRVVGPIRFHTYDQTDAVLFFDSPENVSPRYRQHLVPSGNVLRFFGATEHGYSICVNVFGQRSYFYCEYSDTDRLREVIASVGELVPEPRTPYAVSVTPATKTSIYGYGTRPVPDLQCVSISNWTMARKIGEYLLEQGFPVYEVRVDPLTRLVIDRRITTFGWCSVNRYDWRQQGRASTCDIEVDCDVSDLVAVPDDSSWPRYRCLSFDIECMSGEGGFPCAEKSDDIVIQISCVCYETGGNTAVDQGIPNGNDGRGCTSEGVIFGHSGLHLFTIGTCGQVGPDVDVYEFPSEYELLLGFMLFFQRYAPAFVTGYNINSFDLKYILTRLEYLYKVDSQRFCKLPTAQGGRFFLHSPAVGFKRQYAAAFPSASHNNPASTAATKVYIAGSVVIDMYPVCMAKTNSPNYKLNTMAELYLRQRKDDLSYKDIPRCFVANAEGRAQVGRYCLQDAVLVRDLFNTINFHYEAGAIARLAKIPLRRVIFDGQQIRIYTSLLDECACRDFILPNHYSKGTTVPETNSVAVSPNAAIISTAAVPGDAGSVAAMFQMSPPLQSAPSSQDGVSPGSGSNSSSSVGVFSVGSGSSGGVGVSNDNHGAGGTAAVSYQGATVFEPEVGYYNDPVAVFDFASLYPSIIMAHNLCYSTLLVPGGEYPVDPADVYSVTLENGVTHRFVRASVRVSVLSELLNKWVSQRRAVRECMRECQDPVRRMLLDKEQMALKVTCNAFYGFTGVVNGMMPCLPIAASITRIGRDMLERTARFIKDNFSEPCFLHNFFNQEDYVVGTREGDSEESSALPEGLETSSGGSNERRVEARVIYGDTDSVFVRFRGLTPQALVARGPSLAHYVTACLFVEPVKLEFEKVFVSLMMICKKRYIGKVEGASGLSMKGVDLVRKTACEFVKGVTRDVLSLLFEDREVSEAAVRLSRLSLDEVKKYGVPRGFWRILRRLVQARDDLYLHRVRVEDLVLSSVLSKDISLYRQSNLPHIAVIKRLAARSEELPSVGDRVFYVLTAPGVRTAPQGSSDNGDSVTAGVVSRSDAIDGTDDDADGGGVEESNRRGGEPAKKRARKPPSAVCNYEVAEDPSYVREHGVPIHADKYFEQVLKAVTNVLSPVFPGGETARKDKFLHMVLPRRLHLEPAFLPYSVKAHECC

Regarding `CN1C(=O)CN(c2cnc3c(cc(C(=O)NCc4ccc(Cl)cc4)c(=O)n3CC(=O)N3CC4(CC4)C3)n2)C1=O` [Compound 15, 5-[2-(5-azaspiro[2.3]hexan-5-yl)-2-oxoethyl]-N-[(4-chlorophenyl)methyl]-2-(3-methyl-2,4-dioxoimidazolidin-1-yl)-6-oxo-5,6-dihydropyrido[2,3-b]pyrazine-7-carboxamide], the IC50 in data set [1] is less than 1 µM; in data set [3], less than 10 µM. For the same molecule, the CC50 at 4 days in data set [2] was greater than 40 µM. Besides, the EC50 in data set [4] is less than 1 µM.

For the molecule `CC1(F)CN(C(=O)Cn2c(=O)c(C(=O)NCc3ccc(Cl)cc3)cc3nc(N4CCCC4=O)cnc32)C1` [Compound 1, N-[(4-chlorophenyl)methyl]-5-[2-(3-fluoro-3-methylazetidin-1-yl)-2-oxoethyl]-6-oxo-2-(2-oxopyrrolidin-1-yl)-5,6-dihydropyrido[2,3-b]pyrazine-7-carboxamide], the figures for the IC50 in data set [1] and in data set [3] (setting [5]) were less than 1 µM and greater than 10 µM, respectively. The CC50 at 4 days in data set [2] was less than 20 µM. In data set [4], the EC50 was less than 1 µM.

Consider `CC1(C)CN(C(=O)Cn2c(=O)c(C(=O)NCc3ccc(Cl)cc3)cc3cc(N4CCN(C(C)(C)C(=O)O)C4=O)cnc32)C1` [Compound 45, 2-(3-(6-{[(4-chlorophenyl)methyl]carbamoyl}-8-(2-(3,3-dimethylazetidin-1-yl)-2-oxoethyl)-7-oxo-7,8-dihydro-1,8-naphthyridin-3-yl)-2-oxoimidazolidin-1-yl)-2-methylpropanoic acid], for which the IC50 was less than 1 µM in data set [1] and greater than 10 µM in data set [3] (setting [5]). In data set [2], the CC50 at 4 days was greater than 40 µM. Besides, the EC50 in data set [4] is less than 1 µM.

As to `CC1(F)CN(C(=O)Cn2c(=O)c(C(=O)NCc3ccc(Cl)cc3)cc3nc(N4CCN(CC(N)=O)C4=O)cnc32)C1` [Compound 40, 2-[3-(2-amino-2-oxoethyl)-2-oxoimidazolidin-1-yl]-N-[(4-chlorophenyl)methyl]-5-[2-(3-fluoro-3-methylazetidin-1-yl)-2-oxoethyl]-6-oxo-5,6-dihydropyrido[2,3-b]pyrazine-7-carboxamide], the IC50 was less than 1 µM in data set [1] and greater than 10 µM in data set [3] (setting [5]). The same molecule came in with a CC50 at 4 days in data set [2] greater than 40 µM. Further, in data set [4], the EC50 is greater than 1 µM.

For the molecule `NCCN1CCN(c2cnc3c(cc(C(=O)NCc4ccc(Cl)cc4)c(=O)n3CC(=O)N3CC4(CC4)C3)n2)C1=O` [Compound 36, 2-[3-(2-aminoethyl)-2-oxoimidazolidin-1-yl]-5-[2-(5-azaspiro[2.3]hexan-5-yl)-2-oxoethyl]-N-[(4-chlorophenyl)methyl]-6-oxo-5,6-dihydropyrido[2,3-b]pyrazine-7-carboxamide], the IC50 is less than 1 µM in data set [1] and greater than 10 µM in data set [3]. The same molecule gave a CC50 at 4 days in data set [2] of 18 µM. The EC50 in data set [4] was less than 1 µM.

Take `CC1(F)CN(C(=O)Cn2c(=O)c(C(=O)NCc3ccc(Cl)cc3)cc3nc(N4CCN(Cc5nnn[nH]5)C4=O)cnc32)C1` [Compound 27, N-[(4-chlorophenyl)methyl]-5-[2-(3-fluoro-3-methylazetidin-1-yl)-2-oxoethyl]-6-oxo-2-{2-oxo-3-[(1H-tetrazol-5-yl)methyl]imidazolidin-1-yl}-5,6-dihydropyrido[2,3-b]pyrazine-7-carboxamide]: the IC50 is less than 1 µM in data set [1] and greater than 10 µM in data set [3] (setting [5]). The same molecule registered a CC50 at 4 days in data set [2] greater than 40 µM. For the same molecule, the EC50 in data set [4] was greater than 1 µM.

With `CC1(F)CN(C(=O)Cn2c(=O)c(C(=O)NCc3ccc(Cl)cc3)cc3nc(N4CCNC4=O)cnc32)C1` [Compound 12, N-[(4-chlorophenyl)methyl]-5-[2-(3-fluoro-3-methylazetidin-1-yl)-2-oxoethyl]-6-oxo-2-(2-oxoimidazolidin-1-yl)-5,6-dihydropyrido[2,3-b]pyrazine-7-carboxamide], the IC50 in data set [1] is less than 1 µM; in data set [3] (setting [5]), greater than 10 µM. For the same molecule, in data set [2], the CC50 at 4 days was greater than 40 µM. Moreover, the EC50 in data set [4] is less than 1 µM.

Turning to `CC1(F)CN(C(=O)Cn2c(=O)c(C(=O)NCc3ccc(Cl)cc3)cc3nc(N4CCN(CC(=O)N5CCC5)C4=O)cnc32)C1` [Compound 28, 2-{3-[2-(azetidin-1-yl)-2-oxoethyl]-2-oxoimidazolidin-1-yl}-N-[(4-chlorophenyl)methyl]-5-[2-(3-fluoro-3-methylazetidin-1-yl)-2-oxoethyl]-6-oxo-5,6-dihydropyrido[2,3-b]pyrazine-7-carboxamide], the IC50 is less than 1 µM in data set [1] and greater than 10 µM in data set [3] (setting [5]). In data set [2], this molecule gave a CC50 at 4 days greater than 40 µM. Moreover, the EC50 in data set [4] was less than 1 µM.

These data come from patent publication US20230136702A1, “Inhibitors of Human Herpesviruses” (The Governors of the University of Alberta, priority 2020, published 2023).
